Data reported in patent US20240216338A1, “NEW FORMULATIONS AND USES” (ALZECURE PHARMA AB, priority 2021, published 2024).
Like-named read-outs stand apart in the source and are kept apart here. Where no end group is shown, it is not given here.

Columns and labels:
mice = conditions: topical, WO 2018/048779; cited from earlier work
healthy volunteers [1] = experiment: Laser algesimetry, laser evoked potentials (LEP), N2-P2 Peak-to-Peak amplitude; type: in vivo, human; conditions: for PtP Mean Difference: topical, difference from placebo, day 4 (AUC)
Experimental: Healthy volunteers were screened for eligibility from Day −28 to Day −2 before first treatment. During screening also, a training session (without study medication) was performed in order to introduce subjects to the testing and rating procedures. Prior to testing the laser evoked potentials (LEPs) from healthy skin, the individual Laser Pain Threshold (LPT) was be determined for each volunteer.
(§1) At Day 1, Areas 1-4 were treated with 1 ml of the Compound 1 Gel (0.05 ml/cm^2) or placebo and were tested for changes in LEP-amplitudes and Visual Analog Scale Rating of Pain (VAS-P). Assessments were performed before and after (investigational medicinal product) IMP application. At Days 2 and 3, LEPs and VAS-P assessments will also be performed before and 1 h after the second and third application of IMP at the same time as on Day 1 (±1 h). At test Day 4, LEPs and VAS-P were evaluated for areas 1-4 at 1, 6 and 9 h after the 4th IMP application.
At the 2 h time point on Day 4, skin areas 5 and 6 will be UVR irradiated with 2 MED. LEPs, VAS-P, erythema (by skin reflection spectrometry (SRS)) and pin prick hyperalgesia (by weighted needle threshold (WNT)) were evaluated before and 1, 2, 3, 6 and 9 h after UVR. At the same time points, anti-inflammatory effects on the areas of UVR will be evaluated by SRS with the a-value being the measure of “redness”. […] One hour after IMP application and 24±1 h after UVR, LEPs and VAS-Pain were evaluated on areas 1-6. In addition, erythema (SRS) and pin prick hyperalgesia (WNT) were evaluated on areas 5 and 6. […]
Laser algesimetry is an experimental induction of pain by means of a contact-free thermo-nociceptive laser beam with a constant short duration (ms) and individually adjusted intensity above the pain threshold (determined at Screening). Objective and quantitative measurement of nociception is accomplished by the analysis of the contingent vertex EEG event-related potentials (somatosensory/radiant heat ERPs).
The study effects of the study medications (the Compound 1 Gel and placebo) were measured as a reduction in the PtP amplitude. […]

healthy volunteers [2] = experiment: VAS-Pain (post-laser pain); type: in vivo, human; conditions: for Mean (LEP induced VAS pain): n=24; for VAS Mean Difference: topical, difference from placebo, day 4 (AUC)
Experimental: as §1
At the 2 h time point on Day 4, skin areas 5 and 6 will be UVR irradiated with 2 MED. LEPs, VAS-P, erythema (by skin reflection spectrometry (SRS)) and pin prick hyperalgesia (by weighted needle threshold (WNT)) were evaluated before and 1, 2, 3, 6 and 9 h after UVR. At the same time points, anti-inflammatory effects on the areas of UVR will be evaluated by SRS with the a-value being the measure of “redness”. Subjects returned on Day 5 for the 5th IMP application. One hour after IMP application and 24±1 h after UVR, LEPs and VAS-Pain were evaluated on areas 1-6. In addition, erythema (SRS) and pin prick hyperalgesia (WNT) were evaluated on areas 5 and 6. Subjects returned for a follow-up visit at Day 9 (±1).
VAS-Pain is a subjective assessment of pain, which was used for all skin conditions. Electronic nociceptive scoring with electronic 100-mm visual analog scales (VASs) for post-laser pain (VAS-P) was assessed on a tablet PC, which allowed the subject to discriminate pain severity between no pain and strong pain using a 0 to 100 mm scale. The measurements were taken after each laser session—summarizing the overall impression of the “painfulness” of the whole session.
The statistical analysis was based on the evaluation of treatment related differences at the individual time points and comparison of the AUC (Area Under the Curve) parameter derived from the efficacy endpoints.
The timepoints to be included in the calculation of the AUC depended on the objective. • 1. For evaluating objective a) and b) (treatment areas 1-4), two AUC calculations were used • a. All evaluations at 1 h after IMP application at Days 1-5, the assessment at predose on Day 1 served as reference. • b. Evaluations at all timepoints at Day 4 and before IMP application on Day 5 • 2. For evaluating objective c) and d) all timepoints at Day 4 and the assessments before IMP application on Day 5 will be included in the calculation of the AUC related to treatment areas (treatment area 5 and 6).
Those parameters were analysed using a linear mixed regression model. The regression included the classification variable treatment (A1, A2, B1 and B2 resp. A3 and B3) and the corresponding baseline value (pre dose measurement on normal skin) as fixed effects and the intercept over the subjects as a random effect.
All treatment differences with 95% confidence intervals were estimated from this model. The null-hypotheses that these differences are equal to zero (no difference between active treatments and placebo) were tested at the 5% level against the two-sided alternatives.
Data used from study described in Example 2 for calculating Cohen's D were taken at the 1, 6 and 9 hour time points on day 4 of the study and are shown in the table below. The standard deviation (SD) was derived from the standard error (SE) taking into account the sample size of n=24.

[3] = test system: patients undergoing surgical removal of a mandibular third molar; experiment: Molar extraction study (legacy), oral AZD1386, pain intensity VAS; type: in vivo, human; conditions: 95 mg oral vs placebo
Experimental: This was a single dose, randomised, double-blind, double dummy, placebo- and Naproxen controlled study to investigate the analgesic efficacy of AZD1386 95 mg in patients undergoing surgical removal of a partially or completely impacted mandibular third molar, where bone removal was judged to be needed. Naproxen 500 mg was included as a treatment arm, for assay sensitivity only.
Patients requesting pain relief, due to pain from the dental surgical area, within 6 hours after the end of the administration of the local anaesthetic (last anaesthetic dose) were randomised to 1 of 3 treatment arms: 40 patients received AZD1386 95 mg oral solution and Naproxen placebo capsule, 40 patients received AZD1386 placebo oral solution and Naproxen placebo capsule and 23 patients received AZD1386 placebo oral solution and Naproxen 500 mg (for assay sensitivity only). A visual Analogue Scale (VAS) was used for the assessment of pain intensity and pain on jaw movement. The VAS consists of an ungraduated 100 mm horizontal line with the left end (0 mm) marked “No pain” and the right end (100 mm) marked “Worst pain imaginable”. The patient indicated his/her present pain intensity and pain on jaw movement by drawing a vertical line across the scale on paper CRF pages. The pain intensity was rated by the patients immediately prior to administration of the investigational product, and subsequent assessments were performed at 15 min, 30 min, 45 min, 1 h, 1 h15 min, 1 h30 min, 1 h45 min, 2 h, 2 h30 min, 3 h, 4 h, 5 h, 6 h, 7 h, and 8 h after the start of administration of the investigational product.

healthy volunteers [4] = conditions: for Cohen's d, VAS (0-5 min): Capsaicin, 95 mg oral vs placebo
[5] = oral medication; Quiding et al. PAIN 154 (2013); cited from earlier work
healthy volunteers [6] = experiment: tolerability in the clinical study; conditions: normal skin, skin with a compromised barrier function and inflamed skin
healthy volunteers [7] = conditions: difference from placebo, cited from earlier work
healthy volunteers [8] = conditions: difference from placebo, cited from earlier work; remark: listed apart in the source
[9] = Duloxetin 60 mg (oral), Schaffler et al. (2017)
[10] = Etoricoxib 90 mg (oral), Schaffler et al. (2013)
[11] = Lacosamide 60 mg (oral), Schaffler et al. (2017)
[12] = Pregabalin 150 mg (oral), Schaffler et al. (2017)
[13] = Tramadol 100 mg (oral), Schaffler et al. (2013)

Compound: CC(C)(C)c1ccc(/C=C/C(=O)Nc2ccc3c(c2)OCCO3)cc1 [AMG9810]
- capsaicin-induced wound licking (mice): reduced

Compound: C[C@H](NC(=O)Cn1cnc2ccc(F)c(F)c21)c1ccc(C(C)(C)C)cc1 [Compound 1]
- PtP Mean Difference (healthy volunteers [1]; normal skin): 6.8 μV
- analgesic effects of topical treatment (healthy volunteers [1]; normal, optimized and UVR inflamed skin): highly superior to placebo
- PtP Mean Difference (healthy volunteers [1]; optimised skin): 9.1 μV
- Mean (LEP induced VAS pain) (healthy volunteers [2]; Day 4, 1 h, Normal skin): 32.63 mm
- Mean (LEP induced VAS pain) (healthy volunteers [2]; Day 4, 1 h, Optimized skin): 22.56 mm
- Mean (LEP induced VAS pain) (healthy volunteers [2]; Day 4, 6 h, Normal skin): 32.41 mm
- Mean (LEP induced VAS pain) (healthy volunteers [2]; Day 4, 6 h, Optimized skin): 28.01 mm
- Mean (LEP induced VAS pain) (healthy volunteers [2]; Day 4, 9 h, Normal skin): 35.64 mm
- Mean (LEP induced VAS pain) (healthy volunteers [2]; Day 4, 9 h, Optimized skin): 32.27 mm
- VAS Mean Difference (healthy volunteers [2]; normal skin): 13.2 mm
- VAS Mean Difference (healthy volunteers [2]; optimised skin): 18.7 mm
- Cohen's d, VAS (vs basel.) ([3]; 01:00 h after IMP): 0.66
- Cohen's d, VAS (vs basel.) ([3]; 01:30 h after IMP): 0.12
- Cohen's d, VAS (vs basel.) ([3]; 02:30 h after IMP): in favour
- Cohen's d, VAS (vs basel.) ([3]; 03:00 h after IMP): in favour
- Cohen's d, VAS (vs basel.) ([3]; 04:00 h after IMP): in favour
- Cohen's d, VAS (vs basel.) ([3]; 05:00 h after IMP): in favour
- Cohen's d, VAS (vs basel.) ([3]; 06:00 h after IMP): in favour
- Cohen's d, VAS (0-5 min) (healthy volunteers [4]; 01:08 h after IMP): 0.04
- Cohen's d, VAS (0-5 min) (healthy volunteers [4]; 01:38 h after IMP, listed as AZD1386): 0.3
- Cohen's d, VAS (0-5 min) (healthy volunteers [4]; 02:38 h after IMP): 0.06
- Cohen's d, VAS (0-5 min) (healthy volunteers [4]; 03:38 h after IMP): 0.22
- Cohen's d, VAS (0-5 min) (healthy volunteers [4]; 05:08 h after IMP): 0.15
- time of significant analgesic effects after oral administration (healthy volunteers [4]; oral, consistent across the two legacy studies): 1 to 1.5 h
- liver enzymes [5]: elevations in liver enzymes
- tolerability (healthy volunteers [6]): well tolerated

Compound: CNCC[C@H](Oc1cccc2ccccc12)c1cccs1 [Duloxetin]
- PtP Mean Difference (healthy volunteers [7]; [9]): 1.7 μV
- VAS Mean Difference (healthy volunteers [8]; [9]): 2.2 mm

Compound: Cc1ccc(-c2ncc(Cl)cc2-c2ccc(S(C)(=O)=O)cc2)cn1 [Etoricoxib]
- PtP Mean Difference (healthy volunteers [7]; [10]): 0.2 μV
- VAS Mean Difference (healthy volunteers [8]; [10]): 1.2 mm

Compound: COC[C@@H](NC(C)=O)C(=O)NCc1ccccc1 [Lacosamide]
- PtP Mean Difference (healthy volunteers [7]; [11]): 0.5 μV
- VAS Mean Difference (healthy volunteers [8]; [11]): 2.1 mm

Compound: CC(C)C[C@H](CN)CC(=O)O [Pregabalin]
- PtP Mean Difference (healthy volunteers [7]; [12]): 2.7 μV
- VAS Mean Difference (healthy volunteers [8]; [12]): 9.1 mm

Compound: COc1cccc(C2(O)CCCCC2CN(C)C)c1 (centres unmarked) [Tramadol]
- PtP Mean Difference (healthy volunteers [7]; [13]): 4.5 μV
- VAS Mean Difference (healthy volunteers [8]; [13]): 7.1 mm

Compound: QRFSR [opiorphin]
- capsaicin-induced wound licking (mice): reduced
